Reference: patent publication US20070092576A1, “Compositions containing opioid antagonists” (Adolor Corporation, priority 2005, published 2007)

Columns and labels:
analgesia = experiment: Propensity for reversing analgesia after oral administration; assay type: in vivo; conditions: administered orally; compared with alvimopan
[1] = Solubility of the drug substance; assay type: physicochemical; conditions: for solubility in water: dihydrate

Row | SMILES | propensity for reversing analgesia (analgesia) | solubility as a function of pH ([1]; acid pH versus basic pH) | solubility in water [1] | solubility in water ([1]; listed as compound of formula (II))
1 | C[C@H]1CN(C[C@H](Cc2ccccc2)C(=O)O)CC[C@@]1(C)c1cccc(O)c1 [(3R, 4R, S)-Q-CH2CH(CH2(C6H5))C(O)OH, (αS,3R,4R)-4-(3-hydroxyphenyl)-3,4-dimethyl-α-(phenylmethyl)-1-piperidinepropanoic acid monohydrate] | much greater propensity for undesirably reversing analgesia than alvimopan |  |  | 
2 | C[C@H]1CN(C[C@H](Cc2ccccc2)C(=O)NCC(=O)O)CC[C@@]1(C)c1cccc(O)c1 [Alvimopan, [[2(S)-[[4(R)-(3-hydroxyphenyl)-3(R),4-dimethyl-1-piperidinyl]methyl]-1-oxo-3-phenylpropyl]amino]acetic acid dihydrate] |  | more soluble at an acid pH than a basic pH | extremely low solubility in water | low solubility in water except at low or high pH conditions
